This is an account of results in publication PMC7006816, “Human β-Defensin 2 Mediated Immune Modulation as Treatment for Experimental Colitis” (Frontiers in Immunology, 2020).

Where no end group is shown, it is not given here.

Data set [1] relates to murine BM-DC's. The experiment in a line: Flow cytometry of BM-DCs (p-NF-κB, p-CREB, MHCII, CD86). Conditions: RS504393 prior to LPS + hBD2; n = 6. Type of data set: cell-based, mouse. As for the experimental part: (§1) BM-DC's were generated using granulocyte-macrophage colony-stimulating factor (GM-CSF) and RPMI-1640 medium (Merck) supplemented with 10% fetal calf serum (FBS; Life Technologies), 2 mM glutamine (Thermo Fisher), 100 U/ml penicillin/streptomycin (Gibco), 50 μM 2-mercaptoethanol (Roth), 1 mM sodium pyruvate (Biochrome), and 1x non-essential amino acids (Biochrome) as previously described ([28]). Shortly, 2 × 10^6 bone marrow cells flushed from the tibias and femurs of C57BL/6 mice were seeded in dishes containing 200 U/ml GM-CSF. After 3 days extra medium containing GM-CSF was added to the cells and on day 6 half of the medium was replaced by fresh […] containing GM-CSF. After 7 or 8 days slightly attached cells were harvested. Female C57BL/6JolaHsd mice were purchased from Janvier (St. Berthevin Cedex, France). Animal experiments were performed in strict accordance with the German regulations of the Society for Laboratory Animal Science (GV-SOLAS) and the European Health Law of the Federation of Laboratory Animal Science Associations (FELASA). The protocol was approved by the Regierungspräsidium Tübingen (Anzeige 09.01.2014).
2 × 10^5 murine BM-DC's were seeded in 96-well round bottom plates and treated as described above. Cells were removed from the plate using Accutase (Sigma-Aldrich) and stained for 20 min at room temperature with Zombie Aqua (Biolegend) to exclude dead cells and extracellular antibodies against CD11c-APC (N418) (Miltenyi), MHCII-FITC (M5/114.15.2) (Miltenyi) and CD86-BV421 (GL-1) (Biolegend). For p-CREB staining cells were fixed and permeabilized with Foxp3 Staining Buffer Set (eBioscience) and stained with primary antibody phosphor-CREB mAb (Ser133; clone 87G3) (Cell Signaling) for 30 min in the dark at room temperature followed by secondary goat anti-rabbit IgG-DyLight™649 (Jackson ImmunoResearch) for 15 min at 4°C. To detect intracellular p-NF-κB BM-DCs were fixed with 2% paraformaldehyde (VWR) in PBS, permeabilized with 90% freezing methanol (Applichem) and stained with the primary antibodies to phosphor-NF-κB p65 (93H1) (Cell Signaling) for 60 min in the dark at room temperature followed by goat anti-rabbit IgG-PE-Cy7 (Santa Cruz Biotechnology) for 15 min at 4°C. PBS with 0,5% bovine serum albumin (Biomol) was used for all incubations and washing steps. At least 50,000 cells were acquired using a Canto-II flow cytometer (BD […]) with DIVA software (BD Biosciences) and were further analyzed using FlowJo 10.5 software (Tree Star).
For orientation: In flow cytometry, cells or beads pass a laser one at a time.

The test system of data set [2] is murine BM-DC's. The experiment in a line: Cytokine production by murine BM-DC's. The format is cell-based, mouse. The procedure:
as §1
2 × 10^5 murine BM-DC's or human Mo-DC's were seeded in 96-well round bottom plates. First they were pretreated with 100 ng/ml pertussis toxin (Sigma-Aldrich) or 5 μM of the CCR2 inhibitor RS 504393 (Tocris) and subsequently stimulated with 100 ng/ml LPS or 0.2 […] and 10 μg/ml or 100 μg/ml hBD2. 24 h later supernatants were collected and TNF-α [Biolegend (BM-DC's); R&D (Mo-DC's)] was analyzed according to the manufacturer's instructions. IL-10, IL-12, and IL-1β (LEGENDplex Biolegend) was as well-analyzed according to the manufacturer's instructions.

The subject of data set [3] is SCID mice with CD4+/CD25− T cell transfer colitis. In words: T cell transfer colitis model. Type of data set: in vivo, mouse. The procedure:
This study was performed by the Department of Biomedical Science at the University of Catania according to directive 86/609 EEC and approved by Novozymes science ethics committee. 8 weeks old female BALB/c and C.B-17 female SCID mice were purchased from Harlan (Italy). Colitis was induced in severe combined immunodeficiency (SCID) mice by transplantation of CD4^+/CD25^− T cells from the BALB/c mice. Briefly, lymphomonocytes isolated from spleen or lymph nodes from BALB/c mice were subjected to negative selection of CD4^+ T cells. Afterwards, CD4^+/CD25^+ cells were positively isolated by binding to the beads from the CD4^+ T cell suspensions and the CD4^+/CD25^− were collected from supernatant. […] CD4^+/CD25^− cells were intraperitoneally injected to SCID mice at a concentration of 500,000 cells in a final volume of 0.2 ml RPMI 1640. Sham treated animals (n = 6) received 0.2 ml pure RPMI 1640. Diseased mice were randomized divided into 4 groups (n = 11) and treated once daily by s.c. application of PBS (vehicle), hBD2 (0.1 and 1 mg/kg, respectively) or 0.3 mg/kg Dexamethasone (Dexa., applied intraperitoneally). Treatments started 7 days post T cell transfer and continued daily for 86 days. Animals were weighed three times a week and monitored twice a week starting from day 42 for the clinical status, summarized as DAI. The DAI included body weight loss, stool consistency, and the presence of blood at the rectum. One animal in the vehicle and one in the Dexamethasone treated groups had to be sacrificed before the end of the study. At the end of the study, animals were sacrificed and the colon was removed and carefully cleaned for further analysis. First, the colon was weighed then a section from the middle was removed and fixed for pathologic survey. The rest of the colon (5 cm) was used to quantify the activity of myeloperoxidase in the tissue.
Myeloperoxidase activity was performed on 5 cm of colon previously frozen at −80°C. Colon was homogenized in 0.5% of HETAB dissolved in 10 mM of Phosphate-Citrate Buffer (pH 7.0) to enable the release of MPO enzyme from the neutrophil granules. Homogenated samples after three freeze-thaw cycles were spun at 3,000 × g at 4°C for 30 min. Pellets were resuspended in 0.5% HETAB in 10 mM Phosphate-Citrate Buffer and spun again at 3,000 × g at 4°C for 30 min. 500 ul of supernatant were delivered into a vial along with 500 ul of TMB in Phosphate-Citrate Buffer containing Perborate Sodium. Changes in absorbance at 620 and 450 nm were read by a spectrophotometer (IRIS). Peroxidase enzyme diluted in 0.5% HETAB in 10 mM Phosphate-Citrate Buffer and H2O was used as standard. Two-fold dilutions of standard were prepared at the highest concentration of 50 pg/ml. Reagents and samples were kept refrigerated. Substrate solution was prepared just before the assay. MPO activity expresses the amount of enzyme that is able to degrade […] of peroxide/min and it is expressed as U/g tissue weight.
Sections of the colon were taken from each animal and preserved in neutral buffered formaline for subsequent histological analysis. Sections were stained using haematoxylin and eosin for further scoring.

Data set [4] concerns CD patients. The note with it: clinical trial; cited from earlier work. An excerpt:
Despite ongoing development of therapeutic approaches, new treatment strategies for the management of IBD are still urgently needed. Corticosteroids remain the standard therapeutic options for active CD and UC. However, their beneficial effects are associated with severe side effects such as osteoporosis, moon face, mood disturbances, glaucoma, and hypertension ([47]). In recent years, several new therapeutics targeting the molecular mechanisms of intestinal and systemic inflammation have been developed. Among these, anti-TNFα antibodies have been the most successful and most commonly used bio ...

Data set [5] concerns human dendritic cells and keratinocytes. Conditions: cited from earlier work. From the text: Herein we report that hBD2 can be used as a systemically administered anti-inflammatory biological. hBD2 is well-tolerated, both in vitro, and in vivo. […] After su ...
Data set [6] concerns mice with DSS colitis. The note with it: rectally applied; cited from earlier work.
[7] abbreviates: Dexamethasone 0.3 mg/kg i.p. daily, n = 10.

`Cc1ccc2c(c1)C1(CCN(CCc3nc(-c4ccccc4)oc3C)CC1)OC(=O)N2` [RS504393, RS 504393, reference compound]: in data set [1], the “Effect of pre-treatment on hBD2-mediated change of CREB phosphorylation” value is given as “prevented the increase in CREB phosphorylation”; the “Effect of pre-treatment on hBD2-mediated change of MHCII and CD86 expression” value is reported as “prevented this lower expression”; the “Effect of pre-treatment on hBD2-mediated change of NF-κB phosphorylation” value is on record as “prevented the hBD2-mediated reductions in NF-κB activation”. Moreover, the “Effect of pre-treatment on hBD2 modulation of cytokine secretion” value in data set [2] (5 μM RS504393 before LPS and hBD2) is given as “prevented the anti-inflammatory effect of hBD2”.

In the case of `C[C@@H]1C[C@H]2[C@@H]3CCC4=CC(=O)C=C[C@]4(C)[C@@]3(F)[C@@H](O)C[C@]2(C)[C@@]1(O)C(=O)CO` [dexamethasone, Dexamethasone, reference compound], the “Histological analysis of colon” value in data set [3] (Dexamethasone 0.3 mg/kg i.p. daily) is listed as “Less signs of inflammation”. The “Efficacy compared with hBD2” value in data set [3] (Dexamethasone 0.3 mg/kg i.p. daily vs hBD2 s.c.) is listed as “superior to hBD2 in the T cell transfer model”. In addition, in data set [3] (setting [7]), the Colon weight result was “improved DAI, stool score and colon weight significantly”; the DAI result was “improved DAI, stool score and colon weight significantly”; the Stool score result was “improved DAI, stool score and colon weight significantly”.

Regarding Secukinumab, the “Disease course in CD patients” value in data set [4] is reported as “worsened the disease”.

With “hBD3: defensin named only as hBD3, cited for cytotoxicity in contrast to hBD2 (GIINTLQKYYCRVRGGRCAVLSCLPKEEQIGKCSTRGRKCCRRKK; ends and bridges not checked; cysteine pairing not given here; UniProt P81534 23-67, looked up)”, the Cytotoxic effects result in data set [5] was “demonstrated cytotoxic effects”.

Turning to pertussis toxin [reference compound], the “Effect of pre-treatment on hBD2 modulation of TNF-α, IL-1β, IL-10, IL-12p70 secretion” value in data set [2] (100 ng/ml pertussis toxin before LPS and hBD2) is recorded as “prevented the observed immunomodulatory capacity of hBD2”.

Regarding porcine β-defensin 2 [pBD2], the “Mucosal injury and epithelial barrier in DSS colitis” value in data set [6] was “protective against mucosal injury and disruption of the epithelial barrier”.
